Experimental data published in patent publication US12583884B2, “3beta-(benzyloxy)-17alpha-methyl-pregn-5-en-20-one for use in the treatment of cognitive disorders” (AELIS FARMA, priority 2018, dated 2026).
Like-named read-outs stand apart in the source and are kept apart here.

Assays:
Adenosine A1 = biological target: T1, Adenosine A1 (Homo sapiens, UniProt P30542); assay: CEREP binding profile: A1
T1 construct: CEREP
Text: (§1) The CEREP High-throughput profile consists of a broad collection of 80 transmembrane and soluble receptors, ion channels and G-Protein coupled receptors.

Adenosine A2A = biological target: T2, Adenosine A2A (Homo sapiens, UniProt P29274); assay: CEREP binding profile: A2A
T2 construct: CEREP
Text: as §1

Adenosine A3 = biological target: T3, Adenosine A3 (Homo sapiens, UniProt P0DMS8); assay: CEREP binding profile: A3
T3 construct: CEREP
Text: as §1

Adrenergic alpha2 = assay: CEREP binding profile: alpha2; details: 10 μM
Text: as §1

Adrenergic beta2 = biological target: T4, Adrenergic beta2 (Homo sapiens, UniProt P07550); assay: CEREP binding profile: beta2
T4 construct: CEREP
Text: as §1

Angiotensin-II AT1 = biological target: T5, Angiotensin-II AT1 (Homo sapiens, UniProt P30556); assay: CEREP binding profile: AT1
T5 construct: CEREP
Text: as §1

Angiotensin-II AT2 = biological target: T6, Angiotensin-II AT2 (Homo sapiens, UniProt P50052); assay: CEREP binding profile: AT2
T6 construct: CEREP
Text: as §1

Bombesin BB = assay: CEREP binding profile: BB; details: 10 μM
Text: as §1

Bradykinin B2 = biological target: T7, Bradykinin B2 (Homo sapiens, UniProt P30411); assay: CEREP binding profile: B2
T7 construct: CEREP
Text: as §1

[1] = biological target: T8, Calcitonin gene-related CGRP (Homo sapiens, UniProt O60894+Q16602); assay: CEREP binding profile: CGRP
T8 construct: CEREP
Text: as §1

Cannabinoid CB1 = biological target: T9, Cannabinoid CB1 (Homo sapiens, UniProt P21554); assay: CEREP binding profile: CB1
T9 construct: CEREP
Text: as §1

Cannabinoid CB2 = biological target: T10, Cannabinoid CB2 (Homo sapiens, UniProt P34972); assay: Binding: CB2
T10 construct: CEREP
Text: as §1

Chemokines CCR1 = biological target: T11, Chemokines CCR1 (Homo sapiens, UniProt P32246); assay: CEREP binding profile: CCR1
T11 construct: CEREP
Text: as §1

[2] = biological target: T12, Cholecystokinin CCK1 (CCKA) (Homo sapiens, UniProt P32238); assay: CEREP binding profile: CCK1
T12 construct: CEREP
Text: as §1

[3] = biological target: T13, Cholecystokinin CCK2 (CCKB) (Homo sapiens, UniProt P32239); assay: CEREP binding profile: CCK2
T13 construct: CEREP
Text: as §1

Dopamine D1 = biological target: T14, Dopamine D1 (Homo sapiens, UniProt P21728); assay: CEREP binding profile: D1
T14 construct: CEREP
Text: as §1

Dopamine D2S = biological target: T15, Dopamine D2S (Homo sapiens, UniProt P14416); assay: CEREP binding profile: D2S
T15 construct: CEREP
Text: as §1

Endothelin ETB = biological target: T16, Endothelin ETB (Homo sapiens, UniProt P24530); assay: CEREP binding profile: ETB
T16 construct: CEREP
Text: as §1

Galanin GAL1 = Galanin GAL1 (Homo sapiens, UniProt P47211); assay: CEREP binding profile: GAL1
Text: as §1

Histamine H1 = Histamine H1 (Homo sapiens, UniProt P35367); assay: CEREP binding profile: H1
Text: as §1

Melatonin MT1 (ML1A) = Melatonin MT1 (ML1A) (Homo sapiens, UniProt P48039); assay: CEREP binding profile: MT1
Text: as §1

Muscarinic M2 = Muscarinic M2 (Homo sapiens, UniProt P08172); assay: CEREP binding profile: M2
Text: as §1

Muscarinic M5 = Muscarinic M5 (Homo sapiens, UniProt P08912); assay: CEREP binding profile: M5
Text: as §1

Neurokinin NK2 = Neurokinin NK2 (Homo sapiens, UniProt P21452); assay: CEREP binding profile: NK2
Text: as §1

Neurokinin NK3 = Neurokinin NK3 (Homo sapiens, UniProt P29371); assay: CEREP binding profile: NK3
Text: as §1

[4] = biological target: Opioid and opioid-like kappa (KOP) (Rattus norvegicus, UniProt P34975); assay: CEREP binding profile: kappa; details: 10 μM
Text: as §1

[5] = biological target: Opioid and opioid-like mu (MOP) (Homo sapiens, UniProt P35372); assay: CEREP binding profile: mu; details: 10 μM
Text: as §1

Prostanoid EP4 = Prostanoid EP4 (Homo sapiens, UniProt P35408); assay: CEREP binding profile: EP4
Text: as §1

Somatostatin sst = assay: CEREP binding profile: sst; details: 10 μM
Text: as §1

[6] = biological target: T17, Vasoactive intestinal peptide VPAC1 (VIP1) (Homo sapiens, UniProt P32241); assay: CEREP binding profile: VPAC1
T17 construct: CEREP (contract panel)
Text: as §1

Serotonin 5-HT1A = biological target: T18, Serotonin 5-HT1A (Homo sapiens, UniProt P08908); assay: CEREP binding profile: 5-HT1A
T18 construct: CEREP (contract panel)
Text: as §1

Serotonin 5-HT1B = biological target: T19, Serotonin 5-HT1B (Rattus norvegicus, UniProt P28564); assay: CEREP binding profile: 5-HT1B
T19 construct: CEREP (contract panel)
Text: as §1

Serotonin 5-HT2C = biological target: T20, Serotonin 5-HT2C (Homo sapiens, UniProt P28335); assay: CEREP binding profile: 5-HT2C
T20 construct: CEREP (contract panel)
Text: as §1

Serotonin 5-HT7 = biological target: T21, Serotonin 5-HT7 (Homo sapiens, UniProt P34969); assay: CEREP binding profile: 5-HT7
T21 construct: CEREP (contract panel)
Text: as §1

K+ channels SKCa = assay: CEREP binding profile: SKCa; details: 10 μM
Text: as §1

Transporters Dopamine = biological target: T22, Transporters Dopamine (Homo sapiens, UniProt Q01959); assay: CEREP binding profile: dopamine transporter
T22 construct: CEREP (contract panel)
Text: as §1

[7] = biological target: T23, Transporters Serotonin 5-HT trans. (Homo sapiens, UniProt P31645); assay: CEREP binding profile: 5-HT trans.
T23 construct: CEREP (contract panel)
Text: as §1

GABA = assay: CEREP binding profile: GABA; details: 10 μM
Text: as §1

Purinergic channels P2X = assay: CEREP binding profile: P2X; details: 10 μM
Text: as §1

Sigma sigma = assay: CEREP binding profile: sigma; details: 10 μM
Text: as §1

[8] = biological target: T24, Non-steroid nuclear receptors PPAR gamma (Homo sapiens, UniProt P37231); assay: CEREP binding profile: PPAR gamma
T24 construct: CEREP
Text: as §1

[9] = biological target: PXR (non-steroid nuclear receptor) (Homo sapiens, UniProt O75469); assay: in vitro
Text: as §1

T15 sequence (P14416 1-414 isoform P14416-2): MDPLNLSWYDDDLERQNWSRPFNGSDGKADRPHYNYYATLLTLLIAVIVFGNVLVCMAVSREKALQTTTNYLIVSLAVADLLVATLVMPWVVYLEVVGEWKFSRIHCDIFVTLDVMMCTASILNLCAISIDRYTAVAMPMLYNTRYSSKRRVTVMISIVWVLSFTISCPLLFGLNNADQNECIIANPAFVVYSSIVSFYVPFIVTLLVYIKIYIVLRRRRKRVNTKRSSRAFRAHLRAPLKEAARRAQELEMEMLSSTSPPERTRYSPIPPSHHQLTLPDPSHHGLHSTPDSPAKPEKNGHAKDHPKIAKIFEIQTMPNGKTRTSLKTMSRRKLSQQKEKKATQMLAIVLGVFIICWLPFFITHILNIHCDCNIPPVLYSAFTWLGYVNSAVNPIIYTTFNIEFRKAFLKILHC
T18 sequence (P08908 whole entry): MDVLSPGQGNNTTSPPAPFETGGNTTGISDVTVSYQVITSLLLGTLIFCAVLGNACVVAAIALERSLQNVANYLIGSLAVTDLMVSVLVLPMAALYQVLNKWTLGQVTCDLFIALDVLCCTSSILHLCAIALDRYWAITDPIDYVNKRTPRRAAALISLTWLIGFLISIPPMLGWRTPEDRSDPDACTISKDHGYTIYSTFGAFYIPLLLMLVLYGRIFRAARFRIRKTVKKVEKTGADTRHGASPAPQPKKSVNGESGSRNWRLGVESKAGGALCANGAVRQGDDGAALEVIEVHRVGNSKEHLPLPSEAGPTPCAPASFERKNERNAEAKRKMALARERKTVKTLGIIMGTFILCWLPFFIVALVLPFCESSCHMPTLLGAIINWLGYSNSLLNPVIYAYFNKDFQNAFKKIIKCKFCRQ
T19 sequence (P28564 whole entry): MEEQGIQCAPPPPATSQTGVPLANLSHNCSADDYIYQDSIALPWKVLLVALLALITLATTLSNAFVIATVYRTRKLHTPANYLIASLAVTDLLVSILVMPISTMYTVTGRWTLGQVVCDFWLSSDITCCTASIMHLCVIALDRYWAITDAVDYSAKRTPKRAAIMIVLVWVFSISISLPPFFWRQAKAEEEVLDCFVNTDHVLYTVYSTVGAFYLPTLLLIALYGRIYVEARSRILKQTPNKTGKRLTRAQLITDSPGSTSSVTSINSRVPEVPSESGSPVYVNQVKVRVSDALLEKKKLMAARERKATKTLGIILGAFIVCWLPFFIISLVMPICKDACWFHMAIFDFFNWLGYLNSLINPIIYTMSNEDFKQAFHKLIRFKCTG
Chain of Melatonin MT1 (ML1A) (P48039 whole entry): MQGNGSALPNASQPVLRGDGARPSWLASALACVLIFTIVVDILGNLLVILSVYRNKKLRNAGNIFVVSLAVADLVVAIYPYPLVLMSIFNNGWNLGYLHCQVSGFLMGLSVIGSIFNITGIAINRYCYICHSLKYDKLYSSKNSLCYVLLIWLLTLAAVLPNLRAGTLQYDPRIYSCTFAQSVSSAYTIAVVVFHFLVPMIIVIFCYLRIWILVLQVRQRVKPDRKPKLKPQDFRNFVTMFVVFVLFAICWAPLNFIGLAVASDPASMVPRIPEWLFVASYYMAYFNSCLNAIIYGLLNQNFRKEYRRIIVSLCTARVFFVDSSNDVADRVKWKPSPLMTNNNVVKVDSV
T3 sequence (P0DMS8 whole entry): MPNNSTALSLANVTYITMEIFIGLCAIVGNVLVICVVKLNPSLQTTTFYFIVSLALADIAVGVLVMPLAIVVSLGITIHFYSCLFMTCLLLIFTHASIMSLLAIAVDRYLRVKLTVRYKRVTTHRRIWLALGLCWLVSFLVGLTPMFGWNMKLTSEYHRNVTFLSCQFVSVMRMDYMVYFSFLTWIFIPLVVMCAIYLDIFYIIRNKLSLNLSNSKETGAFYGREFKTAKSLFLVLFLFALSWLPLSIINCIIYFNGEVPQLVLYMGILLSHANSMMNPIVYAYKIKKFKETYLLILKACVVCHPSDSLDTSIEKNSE
T24 sequence (P37231 whole entry): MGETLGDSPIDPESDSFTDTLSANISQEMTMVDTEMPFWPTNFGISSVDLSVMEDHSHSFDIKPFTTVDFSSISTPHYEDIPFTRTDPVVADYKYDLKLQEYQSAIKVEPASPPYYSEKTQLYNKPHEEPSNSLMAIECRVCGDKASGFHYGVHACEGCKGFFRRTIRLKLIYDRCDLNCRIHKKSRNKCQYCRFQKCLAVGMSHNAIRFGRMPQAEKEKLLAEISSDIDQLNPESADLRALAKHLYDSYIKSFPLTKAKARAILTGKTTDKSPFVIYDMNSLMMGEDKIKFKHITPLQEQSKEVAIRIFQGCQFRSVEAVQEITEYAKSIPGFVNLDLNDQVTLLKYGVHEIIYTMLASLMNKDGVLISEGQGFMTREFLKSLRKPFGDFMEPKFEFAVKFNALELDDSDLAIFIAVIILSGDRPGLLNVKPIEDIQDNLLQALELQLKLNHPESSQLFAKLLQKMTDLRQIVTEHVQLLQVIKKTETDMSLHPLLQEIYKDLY
T14 sequence (P21728 whole entry): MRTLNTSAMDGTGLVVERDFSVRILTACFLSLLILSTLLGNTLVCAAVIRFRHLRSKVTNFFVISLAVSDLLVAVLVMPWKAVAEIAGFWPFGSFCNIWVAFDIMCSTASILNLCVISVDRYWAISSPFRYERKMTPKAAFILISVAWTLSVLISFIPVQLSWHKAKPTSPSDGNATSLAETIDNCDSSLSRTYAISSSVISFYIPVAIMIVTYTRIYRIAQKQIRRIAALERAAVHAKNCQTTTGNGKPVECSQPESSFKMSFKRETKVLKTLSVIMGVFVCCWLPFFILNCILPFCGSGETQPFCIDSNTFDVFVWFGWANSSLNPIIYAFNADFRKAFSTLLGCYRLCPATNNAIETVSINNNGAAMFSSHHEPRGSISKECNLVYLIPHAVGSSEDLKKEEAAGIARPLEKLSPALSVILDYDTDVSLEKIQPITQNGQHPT
Chain of Galanin GAL1 (P47211 whole entry): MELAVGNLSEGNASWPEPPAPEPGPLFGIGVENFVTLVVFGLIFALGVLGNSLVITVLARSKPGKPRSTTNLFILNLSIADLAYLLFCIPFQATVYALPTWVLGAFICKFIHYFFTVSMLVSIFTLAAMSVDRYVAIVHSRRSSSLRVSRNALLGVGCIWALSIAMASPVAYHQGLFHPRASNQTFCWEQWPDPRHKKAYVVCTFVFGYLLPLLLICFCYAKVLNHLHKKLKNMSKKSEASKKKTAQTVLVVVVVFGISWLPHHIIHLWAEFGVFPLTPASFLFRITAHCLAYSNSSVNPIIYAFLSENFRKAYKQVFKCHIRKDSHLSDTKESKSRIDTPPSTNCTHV
T4 sequence (P07550 whole entry): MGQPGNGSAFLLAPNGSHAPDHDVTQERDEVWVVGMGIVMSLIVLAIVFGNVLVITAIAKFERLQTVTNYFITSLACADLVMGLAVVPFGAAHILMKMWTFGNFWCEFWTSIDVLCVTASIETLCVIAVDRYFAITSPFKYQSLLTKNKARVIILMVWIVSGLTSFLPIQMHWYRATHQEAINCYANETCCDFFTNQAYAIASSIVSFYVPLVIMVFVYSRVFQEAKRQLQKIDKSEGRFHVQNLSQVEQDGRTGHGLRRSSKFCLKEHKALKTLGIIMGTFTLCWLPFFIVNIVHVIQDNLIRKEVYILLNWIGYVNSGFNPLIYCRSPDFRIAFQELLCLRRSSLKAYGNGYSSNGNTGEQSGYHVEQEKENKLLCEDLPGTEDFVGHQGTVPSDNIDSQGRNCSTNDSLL
Chain of Neurokinin NK3 (P29371 whole entry): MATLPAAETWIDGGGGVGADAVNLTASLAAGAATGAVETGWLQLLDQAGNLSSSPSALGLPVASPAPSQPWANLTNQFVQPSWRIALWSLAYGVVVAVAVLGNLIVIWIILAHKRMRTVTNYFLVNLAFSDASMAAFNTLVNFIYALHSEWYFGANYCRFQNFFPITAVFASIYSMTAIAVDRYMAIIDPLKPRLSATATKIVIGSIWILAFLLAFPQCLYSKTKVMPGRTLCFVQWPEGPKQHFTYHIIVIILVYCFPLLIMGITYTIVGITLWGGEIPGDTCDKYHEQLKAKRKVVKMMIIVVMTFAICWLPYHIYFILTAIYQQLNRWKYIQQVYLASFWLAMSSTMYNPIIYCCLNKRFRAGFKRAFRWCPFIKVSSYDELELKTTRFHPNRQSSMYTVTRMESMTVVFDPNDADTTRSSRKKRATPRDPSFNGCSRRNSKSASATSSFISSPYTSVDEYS
T22 sequence (Q01959 whole entry): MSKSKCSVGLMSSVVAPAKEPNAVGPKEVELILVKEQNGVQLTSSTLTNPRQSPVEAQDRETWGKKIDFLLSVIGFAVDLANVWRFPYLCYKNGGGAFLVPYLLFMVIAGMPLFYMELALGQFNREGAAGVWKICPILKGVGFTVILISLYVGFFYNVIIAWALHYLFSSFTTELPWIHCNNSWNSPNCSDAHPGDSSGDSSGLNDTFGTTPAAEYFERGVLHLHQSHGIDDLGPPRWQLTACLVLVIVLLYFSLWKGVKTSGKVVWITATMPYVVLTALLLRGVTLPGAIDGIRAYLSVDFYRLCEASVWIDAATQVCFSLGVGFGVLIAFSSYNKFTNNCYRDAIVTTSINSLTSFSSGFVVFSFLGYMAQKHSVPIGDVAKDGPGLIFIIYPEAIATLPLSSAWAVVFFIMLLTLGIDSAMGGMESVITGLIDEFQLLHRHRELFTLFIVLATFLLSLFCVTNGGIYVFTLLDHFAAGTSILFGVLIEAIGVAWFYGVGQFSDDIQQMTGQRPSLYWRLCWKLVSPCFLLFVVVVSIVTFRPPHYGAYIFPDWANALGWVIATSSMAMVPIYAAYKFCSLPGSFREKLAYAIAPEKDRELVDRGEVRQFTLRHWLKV

`CC(=O)[C@@]1(C)CC[C@H]2[C@@H]3CC=C4C[C@@H](OCc5ccccc5)CC[C@]4(C)[C@H]3CC[C@@]21C` [3Bn17MeP, 3β-benzyloxy, 17α-methyl-pregn-5-en-20-one] was tested. Which inhibition at 10 µM (Adenosine A1) did it give?
Its inhibition at 10 µM is -27%.

And the inhibition at 10 µM (Adenosine A2A)?
Its inhibition at 10 µM is -6%.

And the inhibition at 10 µM (Adenosine A3)?
The inhibition at 10 µM was 1%.

What about the “% Inhibition” value (Adrenergic alpha2) of the same compound?
Its value is −1%.

What about the “% Inhibition” value (Adrenergic beta2; 10 μM) of the same compound?
Its value is −4%.

And the inhibition at 10 µM (Angiotensin-II AT1)?
Its inhibition at 10 µM is -13%.

And the inhibition at 10 µM (Angiotensin-II AT2)?
Its inhibition at 10 µM is -5%.

And the “% Inhibition” value (Bombesin BB)?
The value was −6%.

And the inhibition at 10 µM (Bradykinin B2)?
The inhibition at 10 µM was 0%.

And the inhibition at 10 µM [1]?
The inhibition at 10 µM was -15%.

What about the “% Inhibition” value (Cannabinoid CB1; 10 μM) of the same compound?
The value was 2%.

And the inhibition at 10 µM (Cannabinoid CB2)?
Its inhibition at 10 µM is 2%.

And the inhibition at 10 µM (Chemokines CCR1)?
The inhibition at 10 µM was -13%.

And the inhibition at 10 µM [2]?
Its inhibition at 10 µM is 2%.

What about the inhibition at 10 µM [3] of the same compound?
Its inhibition at 10 µM is -21%.

What about the “% Inhibition” value (Dopamine D1; 10 μM) of the same compound?
The value was −10%.

What about the “% Inhibition” value (Dopamine D2S; 10 μM) of the same compound?
Its value is 6%.

What about the inhibition at 10 µM (Endothelin ETB) of the same compound?
Its inhibition at 10 µM is -13%.

And the inhibition at 10 µM (Galanin GAL1)?
The inhibition at 10 µM was -26%.

And the inhibition at 10 µM (Histamine H1)?
Its inhibition at 10 µM is 3%.

What about the inhibition at 10 µM (Melatonin MT1 (ML1A)) of the same compound?
The inhibition at 10 µM was -8%.

What about the inhibition at 10 µM (Muscarinic M2) of the same compound?
Its inhibition at 10 µM is -17%.

What about the inhibition at 10 µM (Muscarinic M5) of the same compound?
The inhibition at 10 µM was 0%.

What about the inhibition at 10 µM (Neurokinin NK2) of the same compound?
The inhibition at 10 µM was -12%.

What about the inhibition at 10 µM (Neurokinin NK3) of the same compound?
Its inhibition at 10 µM is 7%.

And the “% Inhibition” value [4]?
Its value is −17%.

And the “% Inhibition” value [5]?
The value was −4%.

What about the inhibition at 10 µM (Prostanoid EP4) of the same compound?
The inhibition at 10 µM was 25%.

What about the “% Inhibition” value (Somatostatin sst) of the same compound?
The value was −6%.

And the inhibition at 10 µM [6]?
The inhibition at 10 µM was -17%.

What about the “% Inhibition” value (Serotonin 5-HT1A; 10 μM) of the same compound?
The value was 25%.

And the “% Inhibition” value (Serotonin 5-HT1B; 10 μM)?
The value was −15%.

What about the “% Inhibition” value (Serotonin 5-HT2C; 10 μM) of the same compound?
The value was 10%.

And the “% Inhibition” value (Serotonin 5-HT7; 10 μM)?
The value was 8%.

What about the “% Inhibition” value (K+ channels SKCa) of the same compound?
Its value is −3%.

What about the inhibition at 10 µM (Transporters Dopamine) of the same compound?
Its inhibition at 10 µM is -23%.

What about the inhibition at 10 µM [7] of the same compound?
The inhibition at 10 µM was 1%.

What about the Inhibition % (GABA) of the same compound?
The Inhibition % was 10%.

What about the Inhibition % (Purinergic channels P2X) of the same compound?
The Inhibition % was 8%.

What about the Inhibition % (Sigma sigma) of the same compound?
The Inhibition % was 9%.

And the inhibition at 10 µM [8]?
Its inhibition at 10 µM is -12%.

And the inhibition at 10 µM [9]?
Its inhibition at 10 µM is -8%.

Which results are given for `CC(=O)[C@H]1CC[C@H]2[C@@H]3CC=C4C[C@@H](O)CC[C@]4(C)[C@H]3CC[C@]12C` [pregnenolone, reference compound]?
inhibition at 10 µM (Adenosine A1): -25%; inhibition at 10 µM (Adenosine A2A): -1%; inhibition at 10 µM (Adenosine A3): 11%; % Inhibition (Adrenergic alpha2): −2%; inhibition at 10 µM (Adrenergic beta2): -5%; inhibition at 10 µM (Angiotensin-II AT1): -28%; inhibition at 10 µM (Angiotensin-II AT2): -18%; % Inhibition (Bombesin BB): −18%; inhibition at 10 µM (Bradykinin B2): -9%; inhibition at 10 µM [1]: -12%; inhibition at 10 µM (Cannabinoid CB1): 10%; inhibition at 10 µM (Cannabinoid CB2; CB2, 10 μM, read-out: % Inhibition): -19%; inhibition at 10 µM (Chemokines CCR1): -10%; inhibition at 10 µM [2]: -30%; inhibition at 10 µM [3]: -38%; inhibition at 10 µM (Dopamine D1): -8%; inhibition at 10 µM (Dopamine D2S): 5%; inhibition at 10 µM (Endothelin ETB): 4%; inhibition at 10 µM (Galanin GAL1): -16%; inhibition at 10 µM (Histamine H1): 0%; inhibition at 10 µM (Melatonin MT1 (ML1A)): 26%; inhibition at 10 µM (Muscarinic M2; M2, 10 μM, read-out: % Inhibition): -4%; inhibition at 10 µM (Muscarinic M5; M5, 10 μM, read-out: % Inhibition): 8%; inhibition at 10 µM (Neurokinin NK2): -1%; inhibition at 10 µM (Neurokinin NK3): 11%; % Inhibition [4]: 38%; % Inhibition [5]: −5%; inhibition at 10 µM (Prostanoid EP4): 21%; % Inhibition (Somatostatin sst): −8%; inhibition at 10 µM [6]: -10%; inhibition at 10 µM (Serotonin 5-HT1A): 12%; inhibition at 10 µM (Serotonin 5-HT1B): -28%; inhibition at 10 µM (Serotonin 5-HT2C): -9%; inhibition at 10 µM (Serotonin 5-HT7): 11%; % Inhibition (K+ channels SKCa): −8%; inhibition at 10 µM (Transporters Dopamine; dopamine transporter, 10 μM, read-out: % Inhibition): -12%; inhibition at 10 µM ([7]; 5-HT trans., 10 μM, read-out: % Inhibition): 1%; Inhibition % (GABA): 10%; Inhibition % (Purinergic channels P2X): 13%; Inhibition % (Sigma sigma): 26%; inhibition at 10 µM [8]: 4%; inhibition at 10 µM ([9]; PXR receptor binding assay (ligand displacement)): 15%
